In publication PMC9200625, “Identification and Functional Characterization of Peptides With Antimicrobial Activity From the Syphilis Spirochete, Treponema pallidum” (Frontiers in Microbiology, 2022):
Read-outs that look alike come from different tables or passages of the source. Bridge positions count the residues as written; N and C are the ends. Ends that are not written are not given here. Peptide text beside a SMILES is read from it.

Legend:
M. smegmatis MC^2155 = format: cell-based, Mycobacterium smegmatis
Protocol: (§1) Bacterial strains used in this study were: E. coli ATCC 9723H, Pseudomonas aeruginosa ATCC 10148, Staphylococcus aureus ATCC 6538P (penicillin resistant), Streptococcus pyogenes (hospital isolate, strain unknown), Mycobacterium smegmatis MC^2155, N. gonorrhoeae ATCC 700825 (streptomycin resistant), and Salmonella enterica subsp. enterica serovar Typhimurium SL1344 (streptomycin resistant). E. coli, P. aeruginosa, S. aureus, M. smegmatis, and S. enterica were cultured aerobically at 37°C in Mueller Hinton broth (MHB) (Sigma-Aldrich, MO, United States) and on nonselective Mueller Hinton agar (MHA) plates. S. pyogenes was cultured in 5% carbon dioxide at 37°C in MHB supplemented with 5% lysed horse blood (Quad Five, MT, United States) (MHB + 5% HB) and on nonselective MHA plates supplemented with 5% defibrinated sheep blood (Quad Five, MT, United States) (MHA + 5% SB). N. gonorrhoeae was cultured in 5% carbon dioxide at 37°C in gonococcal (GC) chocolate broth medium and on nonselective GC agar plates [GC medium base (BD Difco, MD, United States) supplemented with 1% BBL™ hemoglobin (BD Biosciences, MD, United States) and 1% IsoVitaleX (BD Biosciences, MD, United States)]. Prior to antimicrobial susceptibility assays (as described below), N. gonorrhoeae cultures were subcultured on nonselective GC agar plates (as described above), to ensure bacterial viability. All bacterial stocks were stored in 20% glycerol at –80°C.
(§2) Bacterial suspensions were prepared by transferring bacterial colonies into MHB and resuspending using a vortex mixer to ensure complete suspension of any bacterial aggregates. Turbidity of the colony suspensions was adjusted spectrophotometrically to the required optical densities to achieve a turbidity equivalent to that of a 0.5 McFarland standard (1–2 × 10^8 CFU/mL) followed by dilution in MHB to achieve the standardized microbial inoculum of approximately 5 × 10^5 CFU/mL. Total viable counts (TVC) were routinely performed on all inoculum suspensions to ensure correct bacterial cell densities. The standardized bacterial suspensions were then incubated with two-fold serial dilutions of each peptide (dissolved in 11 μL of ultrapure sterile water; final peptide concentration range of 256 μg/mL–0.5 μg/mL) in Greiner polypropylene round bottom 96-well microtiter plates (Sigma-Aldrich, MO, United States). Each peptide was tested once per experiment, with a range of 3–9 independent experiments performed per peptide. Negative growth/sterility control wells contained bacterial growth media (100 μL) and the peptide solvent (11 μL of ultrapure sterile water). Positive growth control wells contained the standardized number of bacterial cells (100 μL of ∼ 5.0 × 10^5 CFU/mL) and peptide solvent (11 μL of ultrapure sterile water). Plates were incubated at 37°C for 16–24 h and MICs were determined using the unaided eye to identify the lowest concentration of AMP that inhibited visible growth of the tested bacterial species. If the sterility control well was turbid, the test was not considered valid. MBCs were determined by plating the entire content of the wells containing the peptide/bacteria mixture representing the MIC and the entire contents of the preceding wells containing two-fold and four-fold more concentrated AMP dilutions onto nonselective agar plates.

[1] = system: S. pyogenes Unknown strain; Clinical Isolate; format: cell-based, Streptococcus pyogenes; conditions: for MIC: broth microdilution, cultured in MHB + 5% lysed horse blood, 5% carbon dioxide, ~5 × 10^5 CFU/mL, peptide 256–0.5 μg/mL, 37°C 16–24 h, visible growth
Protocol: as §1, §2

S. enterica SL1344 = format: cell-based, Salmonella enterica subsp. enterica serovar Typhimurium
Protocol: as §1
(§3) Bacterial suspensions were prepared by transferring bacterial colonies into MHB and resuspending using a vortex mixer to ensure complete suspension of any bacterial aggregates. Turbidity of the colony suspensions was adjusted spectrophotometrically to the required optical densities to achieve a turbidity equivalent to that of a 0.5 McFarland standard (1–2 × 10^8 CFU/mL) followed by dilution in MHB to achieve the standardized microbial inoculum of approximately 5 × 10^5 CFU/mL. Total viable counts (TVC) were routinely performed on all inoculum suspensions to ensure correct bacterial cell densities. […] Plates were incubated at 37°C for 16–24 h and MICs were determined using the unaided eye to identify the lowest concentration of AMP that inhibited visible growth of the tested bacterial species. […] MBCs were determined by plating the entire content of the wells containing the peptide/bacteria mixture representing the MIC and the entire contents of the preceding wells containing two-fold and four-fold more concentrated AMP dilutions onto nonselective agar plates.

E. coli ATCC 9723H = format: cell-based
Protocol: as §1, §2

P. aeruginosa ATCC 10148 = format: cell-based, Pseudomonas aeruginosa
Protocol: as §1, §2

S. aureus ATCC 6538P = format: cell-based, Staphylococcus aureus
Protocol: as §1, §3

[2] = system: N. gonorrhoeae ATCC 700825; format: cell-based, Neisseria gonorrhoeae
Protocol: as §1
The potential antimicrobial activity of the T. pallidum peptides against N. gonorrhoeae was determined using a modified agar dilution method. In this assay, N. gonorrhoeae colonies from GC chocolate agar plates were resuspended in MHB and the turbidity of the suspension was adjusted, as described above, to achieve the standardized microbial inoculum of approximately 5 × 10^5 CFU/mL. A two-fold serial dilution of the peptides (11 μL in sterile ultrapure water) was then prepared in wells 1–10 of a 96-well sterile polypropylene plate to obtain a dilution series corresponding to 10 times the required testing concentrations (2,560, 1,280, 640, 320, 160, 80, 40, 20, 10, 5 μg/mL). The bacterial suspension (100 μL) was dispensed into the wells containing the peptides. A negative growth/sterility control (well 12) contained bacterial growth media (100 μL) and the peptide solvent (11 μL of ultrapure sterile water). A positive growth control (well 11) contained the standardized number of bacterial cells (100 μL of ∼ 5.0 × 10^5 CFU/mL) and peptide solvent (11 μL of ultrapure sterile water). The 96-well plate was then incubated at 37°C in an atmosphere of 5% CO2 for 3 h to allow for peptide binding and antimicrobial activity. After the incubation period, an aliquot (20 μL) from wells 1–12 was removed and spotted onto the surface of a GC chocolate agar plate. N. gonorrhoeae spotted plates and TVC plates were incubated at 37°C in an atmosphere of 5% CO2 for 18–24 h. […] To determine the bactericidal activity of peptides, total viable counts (TVCs) were also prepared on GC chocolate agar plates for the 3 h-incubated peptide/bacteria mixtures. These counts were compared with TVCs from the corresponding positive growth wells to give the percentage of bacteria killed by each of the peptides following the 3-h incubation.

[3] = broth microdilution in MHB, ~5 × 10^5 CFU/mL, peptide 256–0.5 μg/mL two-fold dilutions, 37°C 16–24 h, visible growth by unaided eye, range over 3–9 independent experiments
[4] = wells at MIC, two-fold and four-fold higher plated on nonselective agar, 24 h 37°C, range over 3–9 independent experiments
[5] = range over 3–9 independent experiments

Row | Molecule | N. gonorrhoeae killing (%) ([2]; ATCC 700825, 3 h, 128 μg/mL) | N. gonorrhoeae killing (%) ([2]; ATCC 700825, 3 h, 256 μg/mL) | N. gonorrhoeae killing (%) ([2]; ATCC 700825, 3 h, 32 μg/mL) | N. gonorrhoeae killing (%) ([2]; ATCC 700825, 3 h, 64 μg/mL) | MIC (M. smegmatis MC^2155; [3]) [µM] | MBC (M. smegmatis MC^2155; [4]) [µM] | MIC (E. coli ATCC 9723H; [3]) [µM] | further results
1 | CC[C@H](C)[C@H](NC(=O)[C@@H](NC(=O)[C@@H]1CCCN1C(=O)[C@H](Cc1ccccc1)NC(=O)[C@@H](N)Cc1ccccc1)[C@@H](C)CC)C(=O)N[C@@H](C)C(=O)N[C@@H](CCCNC(=N)N)C(=O)N[C@@H](CC(C)C)C(=O)N[C@@H](C)C(=O)N[C@@H](C)C(=O)N[C@@H](CCCCN)C(=O)N[C@H](C(=O)N[C@H](C(=O)N1CCC[C@H]1C(=O)N[C@@H](CO)C(=O)N[C@@H](CC(C)C)C(=O)N[C@H](C(=O)N[C@H]1CSSC[C@@H](C(=O)O)NC(=O)[C@H](CCCCN)NC(=O)[C@H](CCCCN)NC(=O)[C@H]([C@@H](C)O)NC(=O)[C@H](C(C)C)NC(=O)[C@H](C)NC1=O)C(C)C)[C@@H](C)CC)C(C)C [RaCa-2] (H-FFPIIARLAAKVIPSLVCAVTKKC-OH; disulfide 18-24; N-terminus and C-terminus assumed) |  |  |  |  |  |  |  | MIC (M. smegmatis MC^2155; MC^2155): 1.5 to 3.1 µM; MBC (M. smegmatis MC^2155; MC^2155, 24 h): 1.5 to 6.2 µM; MBC ([1]; Unknown strain, Clinical Isolate, 24 h): 6.2 to 49.4 µM; MIC (S. enterica SL1344; SL1344): 6.2 to 49.4 µM; MBC (S. enterica SL1344; SL1344, 24 h): 12.4 to 98.9 µM; MIC (E. coli ATCC 9723H; ATCC 9723): 3.1 to 12.4 µM; MBC (E. coli ATCC 9723H; ATCC 9723, 24 h): 6.2 to 24.7 µM; MIC (P. aeruginosa ATCC 10148; ATCC 10148): 49.4 to 98.9 µM; MBC (P. aeruginosa ATCC 10148; ATCC 10148, 24 h): ≥98.9 µM; MIC (S. aureus ATCC 6538P; ATCC 6538): 3.1 to 6.2 µM; MBC (S. aureus ATCC 6538P; ATCC 6538, 24 h): 3.1 to 12.4 µM
2 | CC(C)C[C@H](NC(=O)[C@H](CCC(=O)O)NC(=O)[C@H](CC(N)=O)NC(=O)CNC(=O)[C@H](Cc1ccc(O)cc1)NC(=O)[C@H](CS)NC(=O)[C@H](Cc1c[nH]cn1)NC(=O)[C@H](CC(C)C)NC(=O)[C@H](CO)NC(=O)[C@H](CCCNC(=N)N)NC(=O)[C@H](Cc1c[nH]cn1)NC(=O)[C@H](Cc1ccc(O)cc1)NC(=O)CNC(=O)[C@@H](NC(=O)[C@H](CC(N)=O)NC(=O)[C@H](CS)NC(=O)[C@H](CC(N)=O)NC(=O)[C@H](CS)NC(=O)[C@H](Cc1c[nH]cn1)NC(=O)[C@H](CO)NC(=O)CNC(=O)[C@H](CS)NC(=O)CN)C(C)C)C(=O)N[C@@H](Cc1c[nH]cn1)C(=O)NCC(=O)N[C@@H](CCCCN)C(=O)N[C@@H](CCC(N)=O)C(=O)N[C@@H](CS)C(=O)NCC(=O)N[C@@H](Cc1ccccc1)C(=O)N[C@@H](CO)C(=O)N[C@@H](CCCNC(=N)N)C(=O)N[C@@H](CS)C(=O)NCC(=O)O [Tp0451a_N] (H-GCGSHCNCNVGYHRSLHCYGNELHGKQCGFSRCG-OH) | 0% | 0% |  |  |  |  |  | 
3 | AMRIALWNRATHGEQGALQHLLAG [Tp0751_p5] | 0% | 0% | 0% | 0% |  |  |  | 
4 | IGRARAITHTWGIWCRWGKVWRRS [Tp0451a_C] | 94.4–100% | 97.6–100% | 0–93.0% | 90.5–100% | 1.4 to 2.7 | 1.4 to 5.4 |  | MIC [1, 5]: 5.4 to 10.8 µM; MBC [1, 4]: 5.4 to 43.3 µM
5 | IGRARAITHTWGIWSRWGKVWRRS [Tp0451a_C_C85S] | 0% | 0% | 0% | 0% | 5.4 | 10.9 | 10.9 to 21.8 | MIC [1, 5]: 5.4 to 10.9 µM; MBC [1, 4]: 10.9 to 43.6 µM; MBC (E. coli ATCC 9723H; [4]): 10.9 to 43.6 µM
6 | KGIVAERILKPCVRRKVNGKFRS [Tp0749_C] | 0% | 0% |  |  | 1.5 to 3.0 | 1.5 to 3.0 | 12.0 | MBC (E. coli ATCC 9723H; [4]): 48.2 to 96.4 µM; MIC (P. aeruginosa ATCC 10148; [3]): 24.1 to 48.2 µM; MBC (P. aeruginosa ATCC 10148; [4]): 96.4 µM
7 | KGIVAERILKPSVRRKVNGKFRS [Tp0749_C_C61S] | 0% | 0% |  |  | 12.1 to 24.2 | 24.2 to 48.5 | 24.2 to 48.5 | MIC (P. aeruginosa ATCC 10148; [3]): 97.0 µM
8 | PFMQVITWARLYHKNQKRYEKIKK [Tp0749_N] | 0% | 0% |  |  | 0.3 to 1.3 | 1.3 |  | 
9 | RSLEGTDRFPFVRLKNSRKLEFKDIKGIKREQFVKIL [sLL-37] |  |  |  |  |  |  |  | MIC (M. smegmatis MC^2155; MC^2155): 14.2 to 28.5 µM; MBC (M. smegmatis MC^2155; MC^2155, 24 h): ≥57 µM; MIC (P. aeruginosa ATCC 10148; ATCC 10148): ≥57 µM; N. gonorrhoeae killing (%) ([2]; peptide 32 μg/mL, 3-h incubation 37°C 5% CO2, TVCs versus positive growth control, all of three to six independent experiments): 0%; N. gonorrhoeae killing (%) ([2]; peptide 64 μg/mL, 3-h incubation 37°C 5% CO2, TVCs versus positive growth control, all of three to six independent experiments): 0%; N. gonorrhoeae killing (%) ([2]; peptide 128 μg/mL, 3-h incubation 37°C 5% CO2, TVCs versus positive growth control, all of three to six independent experiments): 0%; N. gonorrhoeae killing (%) ([2]; peptide 256 μg/mL, 3-h incubation 37°C 5% CO2, TVCs versus positive growth control, all of three to six independent experiments): 0%
